The NIST ThermoML archive (doi:10.1016/j.jct.2019.105891)

Experiments:
[1] = refractive index (Na D-line) (dimensionless); xn = mol fraction of the nth substance listed; details: 100 kPa, Liquid, Standard Abbe refractometry
[2] = xn = mol fraction of the nth substance listed; details: 100 kPa, Liquid, Falling or rolling sphere viscometry

Nc1ccccc1 [aniline] + CCn1cc[n+](C)c1.F[B-](F)(F)F
Details	refractive index, 293.15 K	refractive index, 303.15 K	refractive index, 313.15 K	refractive index, 323.15 K	viscosity, 293.15 K [mPa·s]	viscosity, 303.15 K [mPa·s]	viscosity, 313.15 K [mPa·s]	viscosity, 323.15 K [mPa·s]
[1], x2 = 0	1.58481	1.58152	1.57823	1.57494	–	–	–	–
[1], x2 = 0.1008	1.56571	1.56202	1.55833	1.55464	–	–	–	–
[1], x2 = 0.2035	1.54192	1.53814	1.53436	1.53058	–	–	–	–
[1], x2 = 0.3059	1.52125	1.51691	1.51285	1.5078	–	–	–	–
[1], x2 = 0.4053	1.50001	1.49592	1.49183	1.48774	–	–	–	–
[1], x2 = 0.5073	1.47963	1.47616	1.47269	1.46922	–	–	–	–
[1], x2 = 0.6013	1.46255	1.45885	1.45515	1.45245	–	–	–	–
[1], x2 = 0.7046	1.44852	1.44449	1.44126	1.43823	–	–	–	–
[1], x2 = 0.8067	1.43589	1.43188	1.42857	1.42556	–	–	–	–
[1], x2 = 0.9059	1.42458	1.42066	1.41748	1.41454	–	–	–	–
[2], x2 = 0	–	–	–	–	4.38	3.24	2.47	1.95
[2], x2 = 0.1008	–	–	–	–	6.84	4.88	3.66	2.66
[2], x2 = 0.2035	–	–	–	–	9.46	6.99	5.16	3.89
[2], x2 = 0.3059	–	–	–	–	12.58	8.93	6.81	5.07
[2], x2 = 0.4053	–	–	–	–	15.93	11.33	8.59	6.51
[2], x2 = 0.5073	–	–	–	–	20.31	14.07	10.48	7.99
[2], x2 = 0.6013	–	–	–	–	24.51	17.1	12.51	9.51
[2], x2 = 0.7046	–	–	–	–	28.93	20.39	14.91	11.06
[2], x2 = 0.8067	–	–	–	–	33.76	23.93	17.35	12.99
[2], x2 = 0.9059	–	–	–	–	39.55	27.15	19.68	14.9
